In patent publication US12234232B2, “Aromatic heterocyclic compound with kinase inhibitory activity” (SHANGHAI ENNOVABIO PHARMACEUTICALS CO., LTD., priority 2018, dated 2025):
pIC50: −log10 of the molar value.

How the values were obtained:
[1] = target: JAK2 (Homo sapiens, UniProt O60674); experiment: In vitro JAK2 kinase activity assay (HTRF kinEASE TK); assay type: biochemical; design: purchased Carna Biosciences; conditions: 2.7 μM ATP, 25 minutes, room temperature; read-out: IC50 JAK2 (enzyme activity assay)
Outline: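 HTRF kinase reaction with 0.001 ng/μl recombinant human JAK2, 1 μM biotinylated TK substrate peptide, 2.7 μM ATP, 5 mM MgCl2, 1 mM DTT, 25 min at room temperature; compounds 10 μM–0.04 nM, 4-fold steps, duplicate, 1% DMSO. Detection overnight; 665/620 ratio converted to % inhibition, IC50 by 4-parameter fit.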

[2] = target: T1, JAK3 protein (Homo sapiens, UniProt P52333); experiment: In vitro JAK3 kinase activity assay (HTRF kinEASE TK); assay type: biochemical; conditions: 0.75 μM ATP, 25 minutes, room temperature; read-out: IC50 JAK3 (enzyme activity assay)
T1 construct: purchased Carna Biosciences
T1 sequence (P52333 1-1124): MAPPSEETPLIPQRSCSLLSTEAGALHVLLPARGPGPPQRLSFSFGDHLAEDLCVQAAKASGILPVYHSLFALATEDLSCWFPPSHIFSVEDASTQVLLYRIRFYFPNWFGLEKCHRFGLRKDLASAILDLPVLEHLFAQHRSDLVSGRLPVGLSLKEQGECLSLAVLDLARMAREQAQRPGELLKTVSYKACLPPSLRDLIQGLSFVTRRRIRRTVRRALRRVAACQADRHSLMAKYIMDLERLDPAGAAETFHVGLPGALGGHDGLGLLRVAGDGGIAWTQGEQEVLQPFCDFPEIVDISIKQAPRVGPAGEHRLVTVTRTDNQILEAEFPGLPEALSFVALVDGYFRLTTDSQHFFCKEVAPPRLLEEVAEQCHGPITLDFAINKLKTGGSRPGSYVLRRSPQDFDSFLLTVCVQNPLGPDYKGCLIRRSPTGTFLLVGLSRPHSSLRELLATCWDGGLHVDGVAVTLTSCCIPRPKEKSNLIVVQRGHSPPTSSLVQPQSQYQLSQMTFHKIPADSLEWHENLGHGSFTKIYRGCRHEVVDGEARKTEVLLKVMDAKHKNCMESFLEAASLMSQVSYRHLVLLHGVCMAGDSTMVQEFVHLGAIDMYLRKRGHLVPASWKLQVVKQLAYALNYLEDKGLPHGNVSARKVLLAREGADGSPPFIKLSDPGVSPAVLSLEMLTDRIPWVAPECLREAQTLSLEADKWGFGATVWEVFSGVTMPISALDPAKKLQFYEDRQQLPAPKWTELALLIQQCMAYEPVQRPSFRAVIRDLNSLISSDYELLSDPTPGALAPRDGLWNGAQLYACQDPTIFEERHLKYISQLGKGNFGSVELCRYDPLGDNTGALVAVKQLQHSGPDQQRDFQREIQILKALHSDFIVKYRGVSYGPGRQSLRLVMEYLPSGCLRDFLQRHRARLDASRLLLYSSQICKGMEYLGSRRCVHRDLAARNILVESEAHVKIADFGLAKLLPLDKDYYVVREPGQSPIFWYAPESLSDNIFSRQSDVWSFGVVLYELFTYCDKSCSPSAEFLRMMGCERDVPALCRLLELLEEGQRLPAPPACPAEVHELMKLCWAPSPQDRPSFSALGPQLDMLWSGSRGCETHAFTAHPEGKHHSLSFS
Outline: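 Recombinant JAK3 ([…]) with 1 μM biotinylated TK substrate peptide and 0.75 μM ATP, 5 mM MgCl2, 1 mM DTT, 1% DMSO; 25 min at room temperature. HTRF read-out (SA-XL665, TK-antibody, overnight) as 665/620 ratio; compounds 10 μM–0.04 nM, 4-fold, duplicates; IC50 from 4-parameter fit.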

Sequence of JAK2 (O60674 whole entry): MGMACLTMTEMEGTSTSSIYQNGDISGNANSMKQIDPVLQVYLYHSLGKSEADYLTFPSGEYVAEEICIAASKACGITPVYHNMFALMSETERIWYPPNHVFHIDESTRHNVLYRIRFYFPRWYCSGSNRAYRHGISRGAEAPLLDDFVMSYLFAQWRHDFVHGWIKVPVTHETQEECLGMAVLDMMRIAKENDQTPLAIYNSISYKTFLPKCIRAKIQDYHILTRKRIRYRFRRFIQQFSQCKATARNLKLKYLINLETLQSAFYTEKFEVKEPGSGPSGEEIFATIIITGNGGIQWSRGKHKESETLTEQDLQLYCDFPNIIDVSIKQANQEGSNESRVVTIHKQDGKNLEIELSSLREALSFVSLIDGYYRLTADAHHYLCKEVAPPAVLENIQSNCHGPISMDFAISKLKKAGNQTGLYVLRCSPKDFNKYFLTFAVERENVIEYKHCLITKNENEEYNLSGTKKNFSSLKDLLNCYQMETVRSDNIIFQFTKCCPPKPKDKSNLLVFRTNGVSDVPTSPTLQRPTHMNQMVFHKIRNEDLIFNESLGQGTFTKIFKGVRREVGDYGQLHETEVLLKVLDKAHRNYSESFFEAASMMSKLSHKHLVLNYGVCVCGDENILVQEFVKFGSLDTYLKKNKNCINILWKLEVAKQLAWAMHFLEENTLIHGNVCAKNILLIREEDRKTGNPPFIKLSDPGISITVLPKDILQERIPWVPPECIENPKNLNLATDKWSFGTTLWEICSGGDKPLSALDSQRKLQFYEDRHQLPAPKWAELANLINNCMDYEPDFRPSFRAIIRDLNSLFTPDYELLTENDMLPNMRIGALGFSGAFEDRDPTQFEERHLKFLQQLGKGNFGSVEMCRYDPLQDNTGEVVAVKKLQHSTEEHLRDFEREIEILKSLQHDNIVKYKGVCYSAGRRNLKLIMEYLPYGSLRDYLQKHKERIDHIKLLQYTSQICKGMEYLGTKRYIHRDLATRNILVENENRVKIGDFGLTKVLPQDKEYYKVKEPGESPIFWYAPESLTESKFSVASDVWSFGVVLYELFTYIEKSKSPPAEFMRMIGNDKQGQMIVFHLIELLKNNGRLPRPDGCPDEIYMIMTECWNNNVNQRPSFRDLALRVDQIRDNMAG

pIC50 [1]: > 7.00
pIC50 [2]: > 6.30
Structure (SMILES): CC[C@H](C(=O)Nc1nccc2c(-c3nc(Nc4cn(C)nc4OC)ncc3C)c[nH]c12)N1CCN(C)CC1 [Example 4, (R)—N-(3-(2-((3-Methoxy-1-methyl-1H-pyrazol-4-yl)amino)-5-methylpyrimidin-4-yl)-1H-pyrrolo[2,3-c]pyridin-7-yl)-2-(4-methylpiperazin-1-yl)butanamide]
